Test results: US20230085307A1, “PYRIDAZINONE COMPOUND AND HERBICIDE” (NISSAN CHEMICAL CORPORATION, priority 2019, published 2023)

Key:
late watergrass = test: Test Example 1: herbicidal activity, application before weed generation under submerged conditions (Table 16, symbol A); format: in vivo, late watergrass (Echinochloa oryzicola); conditions: 320 g/ha applied herbicide
How it was run: (§1)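 Submerged Wagner pots (alluvial soil, 4 cm water) sown with weed seeds and planted with 2.5-leaf rice seedlings; emulsifiable concentrate diluted in water applied to water surface on sowing day. Held in greenhouse at 25-30 °C; injury scored 0-5 by herbicidal rate after three weeks.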

Japanese bulrush = test: Test Example 1: herbicidal activity, application before weed generation under submerged conditions (Table 16, symbol B); format: in vivo, Japanese bulrush (Schoenoplectus juncoides); conditions: 320 g/ha applied herbicide
How it was run: as §1

oval-leafed pondweed = test: Test Example 1: herbicidal activity, application before weed generation under submerged conditions (Table 16, symbol C); format: in vivo, oval-leafed pondweed (Monochoria vaginalis); conditions: 320 g/ha applied herbicide
How it was run: as §1

barnyard grass [1] = test: Test Example 3: herbicidal effect by foliage application, Wagner pot (Table 18, symbol H); format: in vivo, barnyard grass (Echinochloa crus-galli); conditions: amount of applied herbicide 320 g/ha
How it was run: (§2)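 Plants were sown in alluvial soil held under 0.1–0.5 cm standing water and grown 14 days in a greenhouse at 25–30 °C. An emulsifiable formulation, water-diluted to the set dose, was then sprayed onto the foliage, and effects were scored three weeks later using previously defined criteria.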

Chinese sprangletop = test: Test Example 3: herbicidal effect by foliage application, Wagner pot (Table 18, symbol D); format: in vivo, chinese sprangletop (Leptochloa chinensis); conditions: amount of applied herbicide 320 g/ha
How it was run: as §2

rice flat sedge = test: Test Example 3: herbicidal effect by foliage application, Wagner pot (Table 18, symbol E); format: in vivo, rice flat sedge (Cyperus iria); conditions: amount of applied herbicide 320 g/ha
How it was run: as §2

southern crabgrass [2] = test: Test Example 4: herbicidal effect by soil treatment (Table 19, symbol F); format: in vivo, southern crabgrass (Digitaria ciliaris); conditions: amount of applied herbicide 320 g/ha
How it was run: (§3)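 Emulsion of test compound, water-diluted to predetermined amount, sprayed on soil after sowing (seed depth ~1.5 cm, sterilized diluvial soil). Greenhouse, 25–30° C. Effect graded at three weeks post-spray.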

green foxtail [3] = test: Test Example 4: herbicidal effect by soil treatment (Table 19, symbol G); format: in vivo, green foxtail (Setaria viridis); conditions: amount of applied herbicide 320 g/ha
How it was run: as §3

barnyard grass [4] = test: Test Example 4: herbicidal effect by soil treatment (Table 19, symbol H); format: in vivo, barnyard grass (Echinochloa crus-galli); conditions: amount of applied herbicide 320 g/ha
How it was run: as §3

wild oat [5] = test: Test Example 4: herbicidal effect by soil treatment (Table 19, symbol I); format: in vivo, wild oat (Avena fatua); conditions: amount of applied herbicide 320 g/ha
How it was run: as §3

blackgrass [6] = test: Test Example 4: herbicidal effect by soil treatment (Table 19, symbol J); format: in vivo, blackgrass (Alopecurus myosuroides); conditions: amount of applied herbicide 320 g/ha
How it was run: as §3

Italian ryegrass [7] = test: Test Example 4: herbicidal effect by soil treatment (Table 19, symbol K); format: in vivo, Italian ryegrass (Lolium multiflorum); conditions: amount of applied herbicide 320 g/ha
How it was run: as §3

windgrass [8] = test: Test Example 4: herbicidal effect by soil treatment (Table 19, symbol L); format: in vivo, windgrass (Apera spica-venti); conditions: amount of applied herbicide 320 g/ha
How it was run: as §3

velvetleaf [9] = test: Test Example 4: herbicidal effect by soil treatment (Table 19, symbol M); format: in vivo, velvetleaf (Abutilon theophrasti); conditions: amount of applied herbicide 320 g/ha
How it was run: as §3

redroot pigweed [10] = test: Test Example 4: herbicidal effect by soil treatment (Table 19, symbol N); format: in vivo, redroot pigweed (Amaranthus retroflexus); conditions: amount of applied herbicide 320 g/ha
How it was run: as §3

lambsquarters [11] = test: Test Example 4: herbicidal effect by soil treatment (Table 19, symbol O); format: in vivo, lambsquarters (Chenopodium album); conditions: amount of applied herbicide 320 g/ha
How it was run: as §3

chickweed [12] = test: Test Example 4: herbicidal effect by soil treatment (Table 19, symbol P); format: in vivo, common chickweed (Stellaria media); conditions: amount of applied herbicide 320 g/ha
How it was run: as §3

persian speedwell [13] = test: Test Example 4: herbicidal effect by soil treatment (Table 19, symbol R); format: in vivo, Persian speedwell (Veronica persica); conditions: amount of applied herbicide 320 g/ha
How it was run: as §3

southern crabgrass [14] = test: Test Example 5: herbicidal effect by foliage application, plastic box (Table 20, symbol F); format: in vivo, southern crabgrass (Digitaria ciliaris); conditions: foliage application, AAH 320 g/ha, evaluated three weeks after application
How it was run: (§4)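 Post-emergence foliar test in sterilized diluvial soil. Compound applied as water-diluted emulsion at a predetermined rate to 14-day-old plants; evaluation at three weeks.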

green foxtail [15] = test: Test Example 5: herbicidal effect by foliage application, plastic box (Table 20, symbol G); format: in vivo, green foxtail (Setaria viridis); conditions: foliage application, AAH 320 g/ha, evaluated three weeks after application
How it was run: as §4

barnyard grass [16] = test: Test Example 5: herbicidal effect by foliage application, plastic box (Table 20, symbol H); format: in vivo, barnyard grass (Echinochloa crus-galli); conditions: foliage application, AAH 320 g/ha, evaluated three weeks after application
How it was run: as §4

wild oat [17] = test: Test Example 5: herbicidal effect by foliage application, plastic box (Table 20, symbol I); format: in vivo, wild oat (Avena fatua); conditions: foliage application, AAH 320 g/ha, evaluated three weeks after application
How it was run: as §4

blackgrass [18] = test: Test Example 5: herbicidal effect by foliage application, plastic box (Table 20, symbol J); format: in vivo, blackgrass (Alopecurus myosuroides); conditions: foliage application, AAH 320 g/ha, evaluated three weeks after application
How it was run: as §4

Italian ryegrass [19] = test: Test Example 5: herbicidal effect by foliage application, plastic box (Table 20, symbol K); format: in vivo, Italian ryegrass (Lolium multiflorum); conditions: foliage application, AAH 320 g/ha, evaluated three weeks after application
How it was run: as §4

windgrass [20] = test: Test Example 5: herbicidal effect by foliage application, plastic box (Table 20, symbol L); format: in vivo, windgrass (Apera spica-venti); conditions: foliage application, AAH 320 g/ha, evaluated three weeks after application
How it was run: as §4

velvetleaf [21] = test: Test Example 5: herbicidal effect by foliage application, plastic box (Table 20, symbol M); format: in vivo, velvetleaf (Abutilon theophrasti); conditions: foliage application, AAH 320 g/ha, evaluated three weeks after application
How it was run: as §4

redroot pigweed [22] = test: Test Example 5: herbicidal effect by foliage application, plastic box (Table 20, symbol N); format: in vivo, redroot pigweed (Amaranthus retroflexus); conditions: foliage application, AAH 320 g/ha, evaluated three weeks after application
How it was run: as §4

lambsquarters [23] = test: Test Example 5: herbicidal effect by foliage application, plastic box (Table 20, symbol O); format: in vivo, lambsquarters (Chenopodium album); conditions: foliage application, AAH 320 g/ha, evaluated three weeks after application
How it was run: as §4

chickweed [24] = test: Test Example 5: herbicidal effect by foliage application, plastic box (Table 20, symbol P); format: in vivo, common chickweed (Stellaria media); conditions: foliage application, AAH 320 g/ha, evaluated three weeks after application
How it was run: as §4

false cleavers = test: Test Example 5: herbicidal effect by foliage application, plastic box (Table 20, symbol Q); format: in vivo, false cleavers (Galium spurium); conditions: foliage application, AAH 320 g/ha, evaluated three weeks after application
How it was run: as §4

persian speedwell [25] = test: Test Example 5: herbicidal effect by foliage application, plastic box (Table 20, symbol R); format: in vivo, Persian speedwell (Veronica persica); conditions: foliage application, AAH 320 g/ha, evaluated three weeks after application
How it was run: as §4

Structure (SMILES)	Herbicidal effect on A: late watergrass (grade 0-5) (late watergrass)	Herbicidal effect on B: Japanese bulrush (grade 0-5) (Japanese bulrush)	Herbicidal effect on C: oval-leafed pondweed (grade 0-5) (oval-leafed pondweed)	herbicidal effect on H: barnyard grass (barnyard grass [1])	herbicidal effect on D: Chinese sprangletop (Chinese sprangletop)	herbicidal effect on E: rice flat sedge (rice flat sedge)	herbicidal effect on F: southern crabgrass (southern crabgrass [2])	herbicidal effect on G: green foxtail (green foxtail [3])	herbicidal effect on H: barnyard grass (barnyard grass [4])	herbicidal effect on I: wild oat (wild oat [5])	herbicidal effect on J: blackgrass (blackgrass [6])	herbicidal effect on K: Italian ryegrass (Italian ryegrass [7])	herbicidal effect on L: windgrass (windgrass [8])	herbicidal effect on M: velvetleaf (velvetleaf [9])	herbicidal effect on N: redroot pigweed (redroot pigweed [10])	herbicidal effect on O: lambsquarters (lambsquarters [11])	herbicidal effect on P: chickweed (chickweed [12])	herbicidal effect on R: persian speedwell (persian speedwell [13])	F: southern crabgrass, herbicidal effect (criteria 0-5) (southern crabgrass [14])	G: green foxtail, herbicidal effect (criteria 0-5) (green foxtail [15])	also measured
Cc1nn(C)c(=O)c(-c2c(-c3ccc(OC(F)F)cc3)sc3ccc(F)cc23)c1OS(=O)(=O)c1ccc(Cl)cc1 [2-311]	3 (Herbicidal rate of 40% or more and less than 70%)	3 (Herbicidal rate of 40% or more and less than 70%)	3 (Herbicidal rate of 40% or more and less than 70%)	5 (Herbicidal rate of 90% or more (almost completely withered))	2 (Herbicidal rate of 20% or more and less than 40%)	4 (Herbicidal rate of 70% or more and less than 90%)	0 (Herbicidal rate of 5% or less (almost no effect))	0 (Herbicidal rate of 5% or less (almost no effect))	0 (Herbicidal rate of 5% or less (almost no effect))	0 (Herbicidal rate of 5% or less (almost no effect))	0 (Herbicidal rate of 5% or less (almost no effect))	4 (Herbicidal rate of 70% or more and less than 90%)	0 (Herbicidal rate of 5% or less (almost no effect))	2 (Herbicidal rate of 20% or more and less than 40%)	4 (Herbicidal rate of 70% or more and less than 90%)	5 (Herbicidal rate of 90% or more (almost completely withered))	3 (Herbicidal rate of 40% or more and less than 70%)	4 (Herbicidal rate of 70% or more and less than 90%)	2 (Herbicidal rate of 20% or more and less than 40%)	5 (Herbicidal rate of 90% or more (almost completely withered))	H: barnyard grass, herbicidal effect (criteria 0-5) (barnyard grass [16]): 5 (Herbicidal rate of 90% or more (almost completely withered)); I: wild oat, herbicidal effect (criteria 0-5) (wild oat [17]): 3 (Herbicidal rate of 40% or more and less than 70%); J: blackgrass, herbicidal effect (criteria 0-5) (blackgrass [18]): 3 (Herbicidal rate of 40% or more and less than 70%); K: Italian ryegrass, herbicidal effect (criteria 0-5) (Italian ryegrass [19]): 5 (Herbicidal rate of 90% or more (almost completely withered)); L: windgrass, herbicidal effect (criteria 0-5) (windgrass [20]): 4 (Herbicidal rate of 70% or more and less than 90%); M: velvetleaf, herbicidal effect (criteria 0-5) (velvetleaf [21]): 5 (Herbicidal rate of 90% or more (almost completely withered)); N: redroot pigweed, herbicidal effect (criteria 0-5) (redroot pigweed [22]): 5 (Herbicidal rate of 90% or more (almost completely withered)); O: lambsquarters, herbicidal effect (criteria 0-5) (lambsquarters [23]): 5 (Herbicidal rate of 90% or more (almost completely withered)); P: chickweed, herbicidal effect (criteria 0-5) (chickweed [24]): 5 (Herbicidal rate of 90% or more (almost completely withered)); Q: false cleavers, herbicidal effect (criteria 0-5) (false cleavers): 5 (Herbicidal rate of 90% or more (almost completely withered)); R: persian speedwell, herbicidal effect (criteria 0-5) (persian speedwell [25]): 5 (Herbicidal rate of 90% or more (almost completely withered))
Cc1ccc(S(=O)(=O)Oc2c(C)nn(C)c(=O)c2-c2c(-c3ccc(OC(F)F)cc3)sc3ccc(F)cc23)cc1 [2-312]	2 (Herbicidal rate of 20% or more and less than 40%)	3 (Herbicidal rate of 40% or more and less than 70%)	0 (Herbicidal rate of 5% or less (almost no effect))	5 (Herbicidal rate of 90% or more (almost completely withered))	3 (Herbicidal rate of 40% or more and less than 70%)	5 (Herbicidal rate of 90% or more (almost completely withered))	0 (Herbicidal rate of 5% or less (almost no effect))	0 (Herbicidal rate of 5% or less (almost no effect))	1 (Herbicidal rate of 5% or more and less than 20%)	0 (Herbicidal rate of 5% or less (almost no effect))	3 (Herbicidal rate of 40% or more and less than 70%)	5 (Herbicidal rate of 90% or more (almost completely withered))	0 (Herbicidal rate of 5% or less (almost no effect))	3 (Herbicidal rate of 40% or more and less than 70%)	5 (Herbicidal rate of 90% or more (almost completely withered))	4 (Herbicidal rate of 70% or more and less than 90%)	5 (Herbicidal rate of 90% or more (almost completely withered))	5 (Herbicidal rate of 90% or more (almost completely withered))	1 (Herbicidal rate of 5% or more and less than 20%)	4 (Herbicidal rate of 70% or more and less than 90%)	H: barnyard grass, herbicidal effect (criteria 0-5) (barnyard grass [16]): 5 (Herbicidal rate of 90% or more (almost completely withered)); I: wild oat, herbicidal effect (criteria 0-5) (wild oat [17]): 3 (Herbicidal rate of 40% or more and less than 70%); J: blackgrass, herbicidal effect (criteria 0-5) (blackgrass [18]): 4 (Herbicidal rate of 70% or more and less than 90%); K: Italian ryegrass, herbicidal effect (criteria 0-5) (Italian ryegrass [19]): 5 (Herbicidal rate of 90% or more (almost completely withered)); L: windgrass, herbicidal effect (criteria 0-5) (windgrass [20]): 4 (Herbicidal rate of 70% or more and less than 90%); M: velvetleaf, herbicidal effect (criteria 0-5) (velvetleaf [21]): 5 (Herbicidal rate of 90% or more (almost completely withered)); N: redroot pigweed, herbicidal effect (criteria 0-5) (redroot pigweed [22]): 5 (Herbicidal rate of 90% or more (almost completely withered)); O: lambsquarters, herbicidal effect (criteria 0-5) (lambsquarters [23]): 5 (Herbicidal rate of 90% or more (almost completely withered)); P: chickweed, herbicidal effect (criteria 0-5) (chickweed [24]): 5 (Herbicidal rate of 90% or more (almost completely withered)); Q: false cleavers, herbicidal effect (criteria 0-5) (false cleavers): 5 (Herbicidal rate of 90% or more (almost completely withered)); R: persian speedwell, herbicidal effect (criteria 0-5) (persian speedwell [25]): 5 (Herbicidal rate of 90% or more (almost completely withered))
